Assay results as given in publication PMC9151520 (Archives of Toxicology, 2022).
Values joined by “and” are separate entries in the source; they are usually repeats but may differ in a detail not shown here. Equal values may be shown once. Read-outs that look alike come from different tables or passages of the source.

Columns and labels:
[1] = test system: p53 signaling (p53RE-bla HCT-116 cells); assay: cells; assay type: cell-based
[2] = test system: p53 signaling (p53RE-bla HCT-116 cells); assay: cells; assay type: cell-based; remark: listed apart in the source
[3] = test system: p53 signaling (p53RE-bla HCT-116 cells); assay: cells; assay type: cell-based; design: efficacy: unit not given here; conditions: for Emax: HCT-116, read-out: efficacy
[4] = test system: p53 signaling (p53RE-bla HCT-116 cells)
[5] = test system: p53 signaling (p53RE-bla HCT-116 cells); remark: listed apart in the source
[6] = rat, microsomes, pH 7.4
[7] = rat
[8] = test system: p53 signaling (p53RE-bla HCT-116 cells); assay: cells; conditions: Homo sapiens
[9] = test system: p53 signaling (p53RE-bla HCT-116 cells); assay: cells; conditions: Homo sapiens; remark: listed apart in the source
in vitro = conditions: male, Sprague Dawley, rat, microsomes, pH 7.4
[10] = HCT-116, read-out: p53 activation EC50, HLM
[11] = read-out: p53 activation EC50, RLM
[12] = HCT-116, read-out: p53 activation EC50, RLM
[13] = HCT-116, read-out: p53 activation efficacy, primary screening

Cc1cc(=O)oc2cc(O)ccc12.O [4-Methylumbelliferone hydrate]
EC50, p53 activation, cherry pick confirmation [1]: inactive | EC50, p53 activation, primary screening [1]: inactive | Efficacy, p53 activation, cherry pick confirmation [1]: inactive | Efficacy, p53 activation, primary screening [1]: inactive | EC50 [2]: Inactive | efficacy [3]: 25.18 ± 1.7 ( 100.84 ± 7.34 ) % | EC50 ([3]; read-out: EC50): 25.2 µM | EC50 [4]: 23.3 µM | EC50 ([4]; read-out: EC50, p53 activation, cherry pick confirmation): 25.7 µM | EC50 ([4]; read-out: EC50, p53 activation, primary screening): 33.4 µM | EC50, p53 activation, cherry pick confirmation [5]: inactive | EC50, p53 activation, primary screening [5]: inactive | EC50, viability, cherry pick confirmation (p53RE-bla HCT-116 cells): inactive | EC50, viability, primary screening (p53RE-bla HCT-116 cells): inactive | Efficacy, viability, cherry pick confirmation (p53RE-bla HCT-116 cells): inactive | Efficacy, viability, primary screening (p53RE-bla HCT-116 cells): inactive | Microsome stability Half-life without cells [6]: 26.74 ± 0.98 min

COP(=S)(NC(C)C)Oc1ccc(C)cc1[N+](=O)[O-] (stereo not drawn) [Amiprofos-methyl]
p53 activation EC50 [1]: inactive | p53 activation efficacy [1]: inactive | EC50 [2]: Inactive | efficacy [3]: 4.48 ± 0.3 ( 100.11 ± 8.75 ) % | EC50 ([3]; read-out: EC50): 4.48 µM | EC50 [4]: 4.69 µM | activity outcome in p53-bla assay [4]: induce p53 signaling | p53 activation efficacy [4]: 84.8532 and 75.0867 | p53 activation EC50 [5]: inactive | Viability EC50 (p53RE-bla HCT-116 cells): inactive | Viability efficacy (p53RE-bla HCT-116 cells): inactive | Microsome stability Half-life without cells [6]: 1.11 min

CCOP(=S)(OCC)Oc1ccc2c(C)c(Cl)c(=O)oc2c1 [Coumaphos]
p53 activation EC50, No MS [1]: inactive | p53 activation Efficacy, No MS [1]: inactive | EC50 [2]: Inactive | EC50 ([3]; Homo sapiens, HCT-116): 7.03 µM | Emax ([3]; Homo sapiens): 68.7% | activity outcome in p53-bla assay [4]: induce p53 signaling | p53 activation EC50, HLM [5]: inactive | Viability EC50, HLM (p53RE-bla HCT-116 cells): inactive | Viability EC50, No MS (p53RE-bla HCT-116 cells): inactive | Viability EC50, RLM (p53RE-bla HCT-116 cells): inactive | Viability Efficacy, HLM (p53RE-bla HCT-116 cells): inactive | Viability Efficacy, No MS (p53RE-bla HCT-116 cells): inactive | Viability Efficacy, RLM (p53RE-bla HCT-116 cells): inactive | Depletion after 16 h of incubation with cells [7]: 99.03 ± 0.34% | EC50 ([8]; HCT-116): 5.95 µM | EC50 [9, 10]: 0.891 µM | half-life (in vitro): 0.88 ± 0.12 min

CCOP(=S)(OCC)SCCSCC [Disulfoton]
p53 activation EC50, No MS [1]: inactive | p53 activation Efficacy, No MS [1]: inactive | EC50 [2]: Inactive | EC50 ([3]; Homo sapiens, HCT-116): 8.47 µM | Emax ([3]; Homo sapiens): 43.6% | activity outcome in p53-bla assay [4]: induce p53 signaling | EC50 [4, 11]: 3.97 µM | p53 activation EC50, HLM [5]: inactive | Viability EC50, HLM (p53RE-bla HCT-116 cells): inactive | Viability EC50, No MS (p53RE-bla HCT-116 cells): inactive | Viability EC50, RLM (p53RE-bla HCT-116 cells): inactive | Viability Efficacy, HLM (p53RE-bla HCT-116 cells): inactive | Viability Efficacy, No MS (p53RE-bla HCT-116 cells): inactive | Viability Efficacy, RLM (p53RE-bla HCT-116 cells): inactive | Depletion after 16 h of incubation with cells [7]: 93.89 ± 4.12% | EC50 ([8]; HCT-116): 9.13 µM | Emax ([8]; HCT-116, read-out: efficacy): 43.3% | EC50 [8, 12]: 7.78 µM | EC50 [9, 10]: 5.07 µM | half-life (in vitro): > 120 min

COP(=S)(OC)Oc1ccc(S(=O)(=O)N(C)C)cc1 [Famphur]
p53 activation EC50, No MS [1]: inactive | p53 activation Efficacy, No MS [1]: inactive | EC50 ([2]; Homo sapiens, HCT-116, 0.5 h): 0.49 µM | EC50 ([3]; Homo sapiens, HCT-116): 3.1 µM | EC50 [4, 11]: 3.1 µM | p53 activation EC50, HLM [5]: inactive | Viability EC50, HLM (p53RE-bla HCT-116 cells): inactive | Viability EC50, No MS (p53RE-bla HCT-116 cells): inactive | Viability EC50, RLM (p53RE-bla HCT-116 cells): inactive | Viability Efficacy, HLM (p53RE-bla HCT-116 cells): inactive | Viability Efficacy, No MS (p53RE-bla HCT-116 cells): inactive | Viability Efficacy, RLM (p53RE-bla HCT-116 cells): inactive | Depletion after 16 h of incubation with cells [7]: 87.7 ± 3.02% | EC50 ([8]; HCT-116): 2.46 µM | Emax ([8]; HCT-116, read-out: efficacy): 73.6% | EC50 [8, 12]: 3.12 µM | EC50 [9, 10]: 2.02 µM | half-life (in vitro): 10.8 ± 1.96 min

CCNP(=S)(OC)O/C(C)=C/C(=O)OC(C)C (stereo not drawn) [Propetamphos]
p53 activation EC50 [1]: inactive | p53 activation efficacy [1]: inactive | EC50 ([2]; Homo sapiens, HCT-116, 0.5 h): 2 µM | EC50 ([3]; Homo sapiens, HCT-116): 2.59 µM | p53 activation efficacy [4]: 78.66 and 99.2667 | p53 activation EC50 [5]: inactive | Viability EC50 (p53RE-bla HCT-116 cells): inactive | Viability efficacy (p53RE-bla HCT-116 cells): inactive | Depletion after 16 h of incubation with cells [7]: 91.32 ± 1.7% | EC50 ([8]; HCT-116): 3.05 µM | Emax ([8]; HCT-116, read-out: efficacy): 88.6% | EC50 ([9]; HCT-116, read-out: p53 activation EC50): 0.731 µM | Emax ([9]; HCT-116, read-out: p53 activation efficacy): 39.9% | half-life (in vitro): > 120 min

CCOC(=O)c1cn2nc(OP(=S)(OCC)OCC)cc2nc1C [Pyrazophos]
p53 activation EC50, No MS [1]: inactive | p53 activation Efficacy, No MS [1]: inactive | EC50 ([2]; Homo sapiens, HCT-116, 0.5 h): 41 µM | EC50 ([3]; Homo sapiens, HCT-116): 0.79 µM | EC50 [4, 11]: 0.877 µM | p53 activation EC50, HLM [5]: inactive | Viability EC50, HLM (p53RE-bla HCT-116 cells): inactive | Viability EC50, No MS (p53RE-bla HCT-116 cells): inactive | Viability EC50, RLM (p53RE-bla HCT-116 cells): inactive | Viability Efficacy, HLM (p53RE-bla HCT-116 cells): inactive | Viability Efficacy, No MS (p53RE-bla HCT-116 cells): inactive | Viability Efficacy, RLM (p53RE-bla HCT-116 cells): inactive | Depletion after 16 h of incubation with cells [7]: 88.65 ± 0.14% | EC50 ([8]; HCT-116): 0.7 µM | Emax ([8]; HCT-116, read-out: efficacy): 32.7% | EC50 [8, 12]: 0.765 µM | EC50 [9, 10]: 3.67 µM | half-life (in vitro): 2.29 ± 0.71 min

CCOP(=S)(OCC)SCSC(C)(C)C [Terbufos]
p53 activation EC50, cherry pick confirmation [1]: inactive | p53 activation EC50, primary screening [1]: inactive | p53 activation efficacy, cherry pick confirmation [1]: inactive | p53 activation efficacy, primary screening [1]: inactive | EC50 [2]: Inactive | EC50 ([3]; Homo sapiens, HCT-116): 1.12 µM | Emax ([3]; Homo sapiens): 53.9% | activity outcome in p53-bla assay [4]: induce p53 signaling | p53 activation EC50, cherry pick confirmation [5]: inactive | p53 activation efficacy, cherry pick confirmation [5]: inactive | Viability EC50, cherry pick confirmation (p53RE-bla HCT-116 cells): inactive | Viability EC50, primary screening (p53RE-bla HCT-116 cells): inactive | Viability efficacy, cherry pick confirmation (p53RE-bla HCT-116 cells): inactive | Viability efficacy, primary screening (p53RE-bla HCT-116 cells): inactive | Depletion after 16 h of incubation with cells [7]: 98.65 ± 1.08% | EC50 ([8]; HCT-116): 2.81 µM | Emax ([8]; HCT-116, read-out: efficacy): 62.7% | EC50 ([8]; HCT-116, read-out: p53 activation EC50, cherry pick confirmation): 1.32 µM | Emax ([8]; HCT-116, read-out: p53 activation efficacy, cherry pick confirmation): 54.3% | Emax [8, 13]: 37.5% | Emax [9, 13]: 37.6% | half-life (in vitro): 1.12 ± 0.2 min
